Experimental data: patent US20250064766A1, “COMPOSITIONS AND METHODS FOR INCREASING ARGININE AND NITRIC OXIDE LEVELS” (priority 2023, published 2025)
In brackets after ≈: the same amount, converted by molar mass.

Experiments:
[1] = Urine arginine and citrulline levels following stimulating agent dosing (LC-MRM/MS); format: in vivo
Protocol: The subjects in each of Groups A and B were given a single 6 g dose (powder dissolved in about 4 oz of water). A urine sample is taken from each subject prior to dosing (baseline) and 24 hours after dosing. The pre-dosing sample for each subject is used as a baseline from which to compare any increase or decrease in arginine and/or citrulline urine levels. • Group A (8 subjects): 6 g of citrulline HCl in 4 oz. of water • Group B (8 subjects): 6 g of L-Citrulline in 4 oz. of water
A third group, consisting of seven subjects, were given a single 2 g dose, otherwise following the same protocol: • Group C (7 subjects): 2 g of citrulline HCl in 4 oz. of water
Internal standard (IS) solutions of arginine-13C6 and citrulline-d7 were prepared in 6 percent trichloroacetic acid solution. Standard substances of arginine and citrulline HCl were precisely weighed and dissolved in Sigmatrix Urine Diluent to make their stock solutions, at 5 mM for each compound. The two stock solutions were then mixed at an equal volume and the mixed standard solution was step by step diluted with Sigmatrix Urine Diluent to have nine serially diluted calibration solutions. The concentrations of each compound in the calibration solutions ranged from 0.015 to 250 μM.
Urine samples were thawed at room temperature. After vortex-mixing for 5 s, 100 μL of each sample was precisely aliquoted into a 1.5-mL Eppendorf safe-lock tube. A mixed urine sample was pooled from 100 μL of each of 10 randomly selected among all the urine samples. Nine 100-μL aliquots of this pooled urine sample were processed along with the batch samples and the calibration solutions for the purpose of quality control (QC) to monitor the analytical variations of the sample preparation and the assay.
To 100 μL of urine or 100 μL of each calibration solution, 100 μL of the IS solution was added. The mixtures were vortexed for 10 s at 3,000 rpm and then sonicated in an ice-water bath for 1 min, followed by centrifugal clarification at 21,000 g and 10° C. for 10 min. 100 μL of the clear supernatant of each solution was mixed with 900 μL of water. 4-μL aliquots of the resultant sample and calibration solutions were injected to run liquid chromatography-multiple reaction monitoring mass spectrometry (LC-MRM/MS) on an Agilent 1290 UHPLC system connected to an Agilent 6495B triple-quadrupole mass spectrometer, which was operated with positive-ion electrospray ionization and in the MRM mode using two pairs of MRM ion transitions and other MS parameters for arginine and citrulline, respectively.
A Waters HSS T3 UPLC column (2.1*100 mm, 1.8 μm) was used for the chromatographic separation and a 5-mM heptafluorobutyric acid solution and acetonitrile were used as the mobile phase for binary-solvent gradient elution under optimized conditions. LC-MRM/MS raw data files were acquired and processed using the Agilent MassHunter® software suite. For concentration calculations, linearly regressed calibration curves of arginine and citrulline were constructed respectively with the data acquired from the calibration solutions. Concentrations of the two compounds detected in urine were calculated by interpolating the calibration curve with the peak area ratios areas measured from the sample solutions, in an appropriate concentration range for each compound.

[2] = Saturated solubility in deionized water at 62° F.; conditions: 16.7 °C, thermodynamic from solid
Protocol: Add five grams of conjugate or blend into 100 mL of water in a 250 ml Beaker. • 2. Record temperature of water before adding conjugate or blend. • 3. After conjugate is added to water, stir or swirl solution for 2 minutes exactly. • 4. If the solution is still cloudy or precipitate is present after 2 minutes, promptly transfer mixture into filter. • 5. If the solution is not cloudy and all of conjugate appears to have gone into solution, add another five grams of conjugate and repeat on from step 3. • 6. Record all data and amounts of conjugate added. • 7. Once solution with precipitate has been filtered, dry the filter with conjugate and use mass by difference to record dry mass of conjugate.
(§1) The solution was filtered, dried, and massed.
as §1, §1, §1, §1

[3] = Plasma arginine and citrulline levels following stimulating agent dosing (LC-MRM/MS); format: in vivo
Protocol: Plasma samples from each of Groups A, B, and C were taken from each subject prior to dosing (baseline) and at 30 minute intervals thereafter up to 180 minutes after dosing (30, 60, 90, 120, and 180 minutes). The pre-dosing sample for each subject is used as a baseline from which to compare any increase or decrease in arginine and/or citrulline plasma levels.
Internal standard (IS) solution of arginine-13C6 and citrulline-d7 were prepared in 6 percent trichloroacetic acid solution. Standard substances of arginine and citrulline were precisely weighed and dissolved in SigMatrix Ultra Serum Diluent to make their stock solutions, at 2000 or 4000 µM for each compound. The stock solutions were then mixed and further diluted with SigMatrix Ultra Serum Diluent to have 9 serially diluted calibration solutions. The concentrations of each compound in the calibration solutions ranged from 0.0008 to 50 μM.
Plasma samples were thawed at room temperature. After vortex-mixing for 5 s, 50 μL of each sample was precisely aliquoted into a 1.5-mL Eppendorf safe-lock tube. […] Twelve 50-μL aliquots of this pooled plasma sample were processed in parallel and analyzed periodically, along with the preparation and analysis of the batch samples and the calibration solutions for the purpose of quality control (QC) to monitor the analytical variations of the sample preparation and the assay. […]

[4] = single 6 g dose in 4 oz. of water, 24 hours after dosing
[5] = single 6 g dose in 4 oz. of water, Baseline (prior to dosing)

Cl.NC(=O)NCCC[C@H](N)C(=O)O [Citrulline HCl, citrulline hydrochloride]
concentration at 24 h ([1]; human, urine, oral, single 2 g dose in 4 oz. of water, 24 hours after dosing, read-out: Citrulline Urine Levels Total Average Amount): 17900 µM
percent increase in urine citrulline 24 hours after dosing per gram ([1]; single 2 g dose): about 300 percent/g
Citrulline Urine Levels Total Average Amount ([1]; single 2 g dose in 4 oz. of water, Baseline (prior to dosing)): 2,471.80 μM
percent increase in urine citrulline 24 hours after dosing per gram ([1]; single 6 g dose): about 300 percent/g
Citrulline Urine Levels Total Average Amount [1, 4]: 157,053.26 μM
Citrulline Urine Levels Total Average Amount [1, 5]: 8,773.04 μM
solubility at 2 min [2]: 149 mg/mL
arginine production per dose, comparison of Groups A-C (plasma) ([3]; single 2 g dose, normalized per dose): highest arginine production per dose

NC(=O)NCCC[C@H](N)C(=O)O [L-Citrulline, L-citrulline, reference compound]
percent increase in urine citrulline 24 hours after dosing per gram ([1]; single 6 g dose): about 1000 percent/g
Citrulline Urine Levels Total Average Amount [1, 4]: 128,215.41 μM
Citrulline Urine Levels Total Average Amount [1, 5]: 2,042.91 μM
solubility at 2 min ([2]; water): 49.8 mg/mL (≈ 284 mM)
amount of citrulline in plasma, comparison of Groups A-C ([3]; single 6 g dose): much larger amount of citrulline in plasma
